GI50 and TGI data for 6 molecules are collected here from PubChem BioAssay (NCI).

Among the test systems are A549 NSCLC; CCRF-CEM leukemia; DU-145 prostate; HOP-62 NSCLC; HOP-92 NSCLC; MOLT-4 leukemia; PC-3 prostate; RXF 393 renal; SK-OV-3 ovarian; SW-620 colon.
What all share (test): NCI tumour cell line growth inhibition, 48 h

Molecules are shown by their SMILES.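 Tested at 5 concentrations; 48 h exposure; 96-well plates; endpoints linearly interpolated, else capped at highest concentration. The concentration for 50% growth inhibition is given as GI50. The concentration for full growth arrest is given as TGI.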 Some results are limits rather than exact numbers.

On to `C[C@]12CC[C@@H]3c4ccc(O)cc4CC[C@H]3[C@@H]1CC[C@@H]2NS(=O)(=O)c1ccc2ccccc2c1`, for which the GI50 is 3.24 µM with A549 NSCLC; 2.94 µM with CCRF-CEM leukemia; 4.14 µM in the test on DU-145 prostate; 5.87 µM in the test with HOP-62 NSCLC; 1.83 µM in the test on HOP-92 NSCLC; 3.37 µM in the test on MOLT-4 leukemia. Besides, the GI50 is 2.75 µM in the test with PC-3 prostate, 1.84 µM with RXF 393 renal, 5.79 µM in the test on SK-OV-3 ovarian and 3.4 µM with SW-620 colon. For the same molecule, the TGI in the test on A549 NSCLC was 13.2 µM; in the test on CCRF-CEM leukemia, greater than 100 µM; in the test on DU-145 prostate, 17.5 µM; with HOP-62 NSCLC it was 20.2 µM; in the test on HOP-92 NSCLC, 7.14 µM; in the test on MOLT-4 leukemia it was greater than 100 µM. For the same molecule, the TGI in the test with PC-3 prostate stood at 17.3 µM; in the test with RXF 393 renal, 4.33 µM; with SK-OV-3 ovarian, 36.4 µM; with SW-620 colon, 15.7 µM.

In the case of `COc1ccc(-c2nnc(Nc3nc(O)c(C4=c5cc(F)ccc5=NC4=O)s3)o2)cc1`, the GI50 in the test on A549 NSCLC was 64.6 µM; in the test with CCRF-CEM leukemia, 28.8 µM; with DU-145 prostate it was 46.9 µM; in the test on HOP-62 NSCLC, 18.2 µM; in the test with HOP-92 NSCLC it was 87 µM; in the test on MOLT-4 leukemia, 30.4 µM. The GI50 with PC-3 prostate was 32.4 µM; in the test on RXF 393 renal, 65.8 µM; in the test with SK-OV-3 ovarian, greater than 100 µM; in the test on SW-620 colon, 47.6 µM. Besides, the TGI in the test on A549 NSCLC was greater than 100 µM; in the test on CCRF-CEM leukemia, greater than 100 µM; with DU-145 prostate, greater than 100 µM; in the test with HOP-62 NSCLC, 43.7 µM; with HOP-92 NSCLC, greater than 100 µM; with MOLT-4 leukemia it was greater than 100 µM. For the same molecule, the TGI in the test on PC-3 prostate, in the test with RXF 393 renal, with SK-OV-3 ovarian and with SW-620 colon was greater than 100 µM each time.

Turning to `NC(CO)C(=O)NCC(=O)O` (centres undefined), the TGI in the test with A549 NSCLC, with CCRF-CEM leukemia, in the test with DU-145 prostate, with HOP-62 NSCLC, in the test on HOP-92 NSCLC and in the test on MOLT-4 leukemia was greater than 100 µM in each case. Also, the TGI in the test on PC-3 prostate, in the test with RXF 393 renal, in the test on SK-OV-3 ovarian and in the test on SW-620 colon was greater than 100 µM throughout.

For the molecule `COc1cc(C2C3=C(COC3=O)Nc3cc4c(cc32)OCO4)cc2c1OCO2` (centres undefined), the GI50 is 0.117 µM with A549 NSCLC; 0.0698 µM in the test with CCRF-CEM leukemia; 0.0832 µM in the test with DU-145 prostate; 0.0762 µM in the test with HOP-62 NSCLC; 3.24 µM in the test with HOP-92 NSCLC; 0.123 µM in the test with MOLT-4 leukemia. Moreover, the GI50 with PC-3 prostate was 0.0629 µM; with RXF 393 renal it was 0.0304 µM; in the test on SK-OV-3 ovarian, 0.0706 µM; in the test on SW-620 colon, 0.0651 µM. Moreover, the TGI in the test with A549 NSCLC was greater than 100 µM; with CCRF-CEM leukemia, greater than 100 µM; with DU-145 prostate it was 0.459 µM; in the test on HOP-62 NSCLC, greater than 87.2 µM; in the test on HOP-92 NSCLC, greater than 93.3 µM; with MOLT-4 leukemia, greater than 100 µM. The TGI in the test on PC-3 prostate, in the test on RXF 393 renal and with SW-620 colon was greater than 100 µM in each case.

As to `COc1cc2c(cc1O)C(c1cc(O)c(O)c(OC)c1)C(O)(C(=O)O)C(CO)C2O` (centres undefined), the TGI in the test on A549 NSCLC is greater than 100 µM; in the test on CCRF-CEM leukemia, 22.7 µM; in the test on DU-145 prostate it was greater than 100 µM; in the test with HOP-62 NSCLC it was greater than 100 µM; in the test with HOP-92 NSCLC, greater than 100 µM; with MOLT-4 leukemia, 44.3 µM. Besides, the TGI in the test with PC-3 prostate was greater than 100 µM; in the test with RXF 393 renal it was greater than 100 µM; in the test with SK-OV-3 ovarian, greater than 100 µM; in the test on SW-620 colon, 76.5 µM.

With `CC(=O)c1ccc2c(c1)N(CCCN(C)C)c1ccccc1S2`, the GI50 in the test on A549 NSCLC was 17.7 µM; with CCRF-CEM leukemia, 18.5 µM; in the test with DU-145 prostate it was 17.1 µM; in the test on HOP-62 NSCLC it was 15.6 µM; in the test with HOP-92 NSCLC it was 11.3 µM; in the test on MOLT-4 leukemia, 16.8 µM. The GI50 was 14.2 µM in the test on PC-3 prostate, 8.86 µM in the test with RXF 393 renal, 13.1 µM with SK-OV-3 ovarian and 16.5 µM in the test with SW-620 colon. Further, the TGI with A549 NSCLC was determined as 34.2 µM; in the test with CCRF-CEM leukemia it was 47.3 µM; in the test with DU-145 prostate, 34.3 µM; in the test on HOP-62 NSCLC, 31.6 µM; with HOP-92 NSCLC it was 53.7 µM; in the test with MOLT-4 leukemia it was 41.2 µM. For the same molecule, the TGI in the test on PC-3 prostate was determined as 30.2 µM; with RXF 393 renal, 22 µM; with SK-OV-3 ovarian it was 26.3 µM; in the test with SW-620 colon, 31.8 µM.
